In patent publication US11504356B2, “Treatment for inflammatory disease” (REPOS PHARMA AB, priority 2017, dated 2022):

Legend:
[1] = system: Phospho-ERK 1/2 (p-ERK) in monocytoid THP-1 cells; assay: p-ERK level in monocytoid THP-1 cells (Bioplex Pro / Luminex MAGPIX); type: cell-based; conditions: for effect on p-ERK levels: 10 μM, 1 hr exposure, monocytoid THP-1 cells, vs DMSO control
Experimental: Monocytoid THP-1 cells were obtained from ATCC (Manassas, Va.) and were cultured in RPMI-1640 medium, supplemented with 10% heat-inactivated fetal bovine serum (HIFBS), 2 mM L-glutamine, 100 U/100 […] penicillin/streptomycin and 0.05 mM 2-mercaptoethanol (all from Sigma, St Louis, Mo.). All cell lines were cultured at 37° C. in a humidified atmosphere containing 5% CO2. Phospho-ERK 1/2 (p-ERK) activity was measured using the Bioplex Pro Cell Signalling assay kit for ERK 1/2 (Biorad) and the Luminex MAGPIX® system according to the manufacturers' instructions. Measurements of p-ERK in CD4+ cells followed the protocol described by Gorelik et al. (J. Immunol. 2007; 179(8):5553-5563). Phosphorylation of ERK by upstream MAPK proteins such as MEK results in activation of ERK. Measurement of p-ERK levels in cells is used as an indicator of ERK signalling. The level of p-ERK in monocytoid THP-1 cells was measured using the Bioplex Pro Cell Signalling assay kit for ERK 1/2 (Biorad) and the Luminex MAGPIX® system. The assay is based on binding of the target of interest via antibodies to magnetic beads. The target is detected using biotinylated antibodies with a fluorescent reporter. The assay was performed according to the manufacturer's instructions. The levels of p-ERK in monocytoid THP-1 cells and PBMC cells were measured using the Bioplex Pro Cell Signalling assay kit for ERK 1/2 (Biorad) and the Luminex MAGPIX® system. The assay is based on binding of the target of interest via antibodies to magnetic beads. The target is detected using biotinylated antibodies with a fluorescent reporter. The assay was performed according to the manufacturer instructions. The levels of the phosphoprotein phospho-ERK (p-ERK) in cell lysates after 1 h exposure to mebendazole (10 μM)), fenbendazole (10 μM) or control (DMSO) in monocytoid THP-1 cells and PMA differentiated THP-1 macrophages was measured using the Luminex MAGPIX® system and the commercially available kit (Biorad, Hercules, Calif.) described above. The assay is based on binding of the target of interest via antibodies to magnetic beads. The target is detected using biotinylated antibodies with a fluorescent reporter. The assays were performed according to the manufacturer's instructions. Briefly, the protein concentrations in the cell lysates were first determined using a Micro-BCA method (ThermoFischer Scientific, Waltham, Mass., USA) to ensure equal amounts of samples in the assay and then measurements were performed by incubating the cell lysate samples with beads, then with detection antibody, and finally with streptavidin-PE. The fluorescence was measured using the MAGPIX instrument (BioRad) and the concentration levels were determined by fitting to a standard curve.

[2] = system: p-ERK in PMA differentiated THP-1 macrophages; assay: p-ERK level in PMA differentiated THP-1 macrophages; type: cell-based; conditions: 10 μM, 1 hr exposure, vs DMSO control
Experimental: Phospho-ERK 1/2 (p-ERK) activity was measured using the Bioplex Pro Cell Signalling assay kit for ERK 1/2 (Biorad) and the Luminex MAGPIX® system according to the manufacturers' instructions. Measurements of p-ERK in CD4+ cells followed the protocol described by Gorelik et al. (J. Immunol. 2007; 179(8):5553-5563). The levels of the phosphoprotein phospho-ERK (p-ERK) in cell lysates after 1 h exposure to mebendazole (10 μM)), fenbendazole (10 μM) or control (DMSO) in monocytoid THP-1 cells and PMA differentiated THP-1 macrophages was measured using the Luminex MAGPIX® system and the commercially available kit (Biorad, Hercules, Calif.) described above. The assay is based on binding of the target of interest via antibodies to magnetic beads. The target is detected using biotinylated antibodies with a fluorescent reporter. The assays were performed according to the manufacturer's instructions. Briefly, the protein concentrations in the cell lysates were first determined using a Micro-BCA method (ThermoFischer Scientific, Waltham, Mass., USA) to ensure equal amounts of samples in the assay and then measurements were performed by incubating the cell lysate samples with beads, then with detection antibody, and finally with streptavidin-PE. The fluorescence was measured using the MAGPIX instrument (BioRad) and the concentration levels were determined by fitting to a standard curve.

p-ERK in PBMC cells = assay: p-ERK level in peripheral blood mononuclear cells (PBMC); type: cell-based; conditions: PBMCs, FIG. 3b
Experimental: Peripheral blood mononuclear cells (PBMCs) from healthy donors were isolated by 1.077 g/ml Ficoll-Paque centrifugation and cryopreserved as described by Larsson et al. (Int J Cancer 1992; 50: 177-185). Cell viability was determined by trypan blue exclusion test. SLE PBMCs were obtained Astarte Biologics, WA, USA (cat no 1035, lot 3429DE16) in cryopreserved vials (10 million cells). CD4+ cells were subsequently isolated with an autoMACS® instrument and a CD4+ isolation kit from Miltenyi Biotec according to the manufacturer's description and the method described by Gorelik et al. (J. Immunol. 2007; 179(8):5553-5563). Phospho-ERK 1/2 (p-ERK) activity was measured using the Bioplex Pro Cell Signalling assay kit for ERK 1/2 (Biorad) and the Luminex MAGPIX® system according to the manufacturers' instructions. Measurements of p-ERK in CD4+ cells followed the protocol described by Gorelik et al. (J. Immunol. 2007; 179(8):5553-5563). The levels of p-ERK in monocytoid THP-1 cells and PBMC cells were measured using the Bioplex Pro Cell Signalling assay kit for ERK 1/2 (Biorad) and the Luminex MAGPIX® system. The assay is based on binding of the target of interest via antibodies to magnetic beads. The target is detected using biotinylated antibodies with a fluorescent reporter. The assay was performed according to the manufacturer instructions.

[3] = system: p-ERK in CD4+ T-cells from SLE patient; assay: p-ERK in CD4+ T-cells isolated from PBMCs from an SLE patient; type: cell-based, human; conditions: 10 μM and 30 μM
Experimental: Peripheral blood mononuclear cells (PBMCs) from healthy donors were isolated by 1.077 g/ml Ficoll-Paque centrifugation and cryopreserved as described by Larsson et al. (Int J Cancer 1992; 50: 177-185). Cell viability was determined by trypan blue exclusion test. SLE PBMCs were obtained Astarte Biologics, WA, USA (cat no 1035, lot 3429DE16) in cryopreserved vials (10 million cells). CD4+ cells were subsequently isolated with an autoMACS® instrument and a CD4+ isolation kit from Miltenyi Biotec according to the manufacturer's description and the method described by Gorelik et al. (J. Immunol. 2007; 179(8):5553-5563). Phospho-ERK 1/2 (p-ERK) activity was measured using the Bioplex Pro Cell Signalling assay kit for ERK 1/2 (Biorad) and the Luminex MAGPIX® system according to the manufacturers' instructions. Measurements of p-ERK in CD4+ cells followed the protocol described by Gorelik et al. (J. Immunol. 2007; 179(8):5553-5563). CD4+ T-Cells were isolated from PBMCs obtained from the venous blood of healthy donors and patients with SLE using the method described in Gorelik et al. (J. Immunol. 2007; 179(8):5553-5563). The level of p-ERK in the isolated CD4+ T-Cells was measured using the Bioplex Pro Cell Signalling assay kit for ERK 1/2 (Biorad) and the Luminex MAGPIX® system.

[4] = Treatment of sarcoidosis patient, PET/CT examination; type: in vivo, human; conditions: one patient, 200 mg daily for six days then 400 mg daily (2×200 mg), after six weeks
Experimental: A daily dose of 200 mg (given as 2×100 mg) of mebendazole was administered for six consecutive days.

[5] = Serum mebendazole concentration in treated patient; type: in vivo; conditions: human, 400 mg daily (2×200 mg), daily dose 400 mg (2×200 mg), after six weeks
Experimental: The serum mebendazole concentration at this time point was 71 ng/ml.

[6] = system: anti-(double stranded)-DNA antibodies in serum of NZBNZWF1 mice; assay: In vivo efficacy study in SLE model, NZBNZWF1 mice, serum anti-dsDNA antibodies
Experimental: 40 female NZBNZWF1 mice (Envigo Europe) were fed and watered ad libitum and acclimatised for approximately 1 week before initiation of the experiment. Mice were 14 weeks old at the initiation of the experiment, and 16 weeks are the start of treatment. The mice were divided into 4 treatment groups of 10 mice each at the initiation of the experiment: • 1. Vehicle control: treatment with vehicle only • 2. Positive control: treatment with methotrexate (15 mg/kg) • 3. […] The positive control treatment of 15 mg/kg methotrexate was administered intraperitoneally 3 times per week for 8 weeks (weeks 16-24 of age of the mice). […] Serum was collected from all mice at initiation of the experiment (mice age 14 weeks), at start of treatment (mice age 16 weeks), and every second week during treatment (mice age 18, 20, 22, and 24 weeks), after treatment (mice age 26 and 28 weeks) and at termination (mice age 30 weeks). The serum samples were analysed for levels of antibodies directed against double stranded DNA (dsDNA) (anti-ds-DNA antibodies).

[7] = low-dose (Vermox), 6276 subjects, 39 clinical trials; cited from earlier work
[8] = long-term high-dose (40 mg/kg/day); cited from earlier work

Row | concentration at 6 weeks [5] [ng/mL] | Structure (SMILES) | effect on p-ERK levels [1] | effect on p-ERK levels [2] | effect on p-ERK levels in THP-1 cells ([1]; FIG. 2, comparison with other tubulin-active agents) | dose dependence of p-ERK level ([1]; THP-1 cells not treated with U0126) | p-ERK fluorescence reading ([1]; THP-1 cells not treated with U0126, 30 μM mebendazole) | p-ERK fluorescence reading ([1]; THP-1 cells not treated with U0126, 1 μm mebendazole) | dose dependence of p-ERK level (p-ERK in PBMC cells) | p-ERK activity compared with CD4+ T-cells from a healthy donor [3] | PET scan outcome: FDG-signal and size of hilar and mediastinal nodes [4] | concentration of anti-dsDNA antibodies in serum vs vehicle control group or methotrexate positive control group ([6]; 25 mg/kg or 50 mg/kg p.o., 5 days per week, weeks 16-24) | concentration of anti-dsDNA antibodies in serum, higher dose vs lower dose ([6]; 50 mg/kg vs 25 mg/kg p.o.) | subjects with related adverse events [7] | tolerability [8]
1 |  | COC(=O)Nc1nc2ccc(Sc3ccccc3)cc2[nH]1 [Fenbendazole, fenbendazole] | did not increase | did not increase |  |  |  |  |  |  |  |  |  |  | 
2 | 71 | COC(=O)Nc1nc2ccc(C(=O)c3ccccc3)cc2[nH]1 [mebendazole, Mebendazole] | significantly increased | significantly increased | significantly increased | increased with an increasing dose | approximately 1200 arb units | approximately 500 arb units | increased with an increasing dose | restored the activity of p-ERK to at least the same level | sarcoidosis in remission | lower concentrations | lower concentration | less than 1% | generally well tolerated
